According to patent US20240025924A1, “HETEROCYCLE SUBSTITUTED KETONE DERIVATIVE, AND COMPOSITION AND MEDICINAL USE THEREOF” (SHANGHAI HAIYAN PHARMACEUTICAL TECHNOLOGY CO., LTD., priority 2021, published 2024):

How the values were obtained:
[1] = target: T1, SHP-2 enzyme (Homo sapiens, UniProt Q06124); assay: Phosphatase activity assay (Homogeneous Full Length SHP-2 Assay Kit, DiFMUP substrate); format: biochemical; details: full length SHP-2 activated with 0.5 μM SHP-2 activating Peptide; 1 hour co-incubation; DiFMUP 50 μM, 30 min
T1 construct: Homogeneous Full Length SHP-2 Assay Kit (BPS Bioscience #79330); purchased BPS Bioscience 79330
T1 sequence (Q06124 1-593): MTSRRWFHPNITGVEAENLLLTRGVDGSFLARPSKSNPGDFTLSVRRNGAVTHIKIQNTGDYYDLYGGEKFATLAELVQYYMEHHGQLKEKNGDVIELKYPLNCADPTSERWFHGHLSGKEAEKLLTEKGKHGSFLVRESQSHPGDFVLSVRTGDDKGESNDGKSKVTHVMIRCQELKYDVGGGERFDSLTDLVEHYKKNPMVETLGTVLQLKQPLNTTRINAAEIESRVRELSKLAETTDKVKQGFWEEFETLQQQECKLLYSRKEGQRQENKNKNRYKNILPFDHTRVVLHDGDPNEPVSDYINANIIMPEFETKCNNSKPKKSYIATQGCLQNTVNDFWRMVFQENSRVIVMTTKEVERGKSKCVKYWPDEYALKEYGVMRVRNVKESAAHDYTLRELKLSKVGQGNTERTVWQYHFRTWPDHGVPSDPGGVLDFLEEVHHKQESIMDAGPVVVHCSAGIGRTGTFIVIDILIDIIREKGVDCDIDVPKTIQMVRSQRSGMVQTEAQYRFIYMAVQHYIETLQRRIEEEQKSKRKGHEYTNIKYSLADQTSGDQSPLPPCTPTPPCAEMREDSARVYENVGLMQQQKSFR
Description: IC50 values were assayed using Homogeneous Full Length SHP-2 Assay Kit (BPS Bioscience #79330), which uses 6,8-difluoro-4-methylumbelliferone phosphate (DiFMUP) as the reaction substrate. SHP2 enzyme solution (diluted to 0.04 ng/μL with 1*buffer) was mixed with 0.5 μM SHP-2 activating Peptide in a 1*buffer solution containing 2.5 mM DTT to activate PTP. At the same time, DMSO (0.1% (V/V)) or the compounds (concentration: 0.5 nM to 1 μM) were added, mixed and co-incubated for 1 hour. DiFMUP (50 μM, total reaction system volume of 20 μL) was added, and the reaction was started. After 30 min of incubation, the fluorescence intensity of the reaction system (excitation wavelength: 350 nm, emission wavelength: 460 nm) was measured by Tecan Infinite M1000.

[2] = tested on: MV-4-11 cell; assay: Cell proliferation assay (Cell Titer-Glo); format: cell-based; details: Homo sapiens, MV4-11, 96 h, inhibition of MV-4-11 cell proliferation; Cell Titer-Glo on day 4
Description: MV 411 cells (20000 cells/well) were inoculated and cultured in 96 (Corning #3916) well plates, and the medium was 80 μL/well (IMDM with 10% fetal bovine serum (FBS), Gibco #10099-141C). After 24 hours of incubation, 20 μL of the compounds of the present invention configured to different concentrations (DMSO final concentration of 0.1% (V/V)) were added. On day 4, 60 μL of Cell Titer-Glo (Promega #G7558) was added to each well and mixed at 80 rpm, 25° C., 15 min, and the fluorescence values were detected by Victor X5 (PE).

Row | IC50 [1] [nM] | IC50 [2] [nM] | SMILES
1 | 4 | 24 | Nc1nc(N2CCC3(CC2)Cc2ccc(Cl)cc2C3N)cnc1C(=O)N1CCCn2nccc21 (centres unmarked) [Compound 2]
2 | 13 | 54 | Nc1nc(N2CCC3(CC2)Cc2ccccc2C3N)cnc1C(=O)N1CCCn2nccc21 (centres unmarked) [Compound 3]
3 | 1 | 78 | Nc1nc(N2CCC3(CC2)Cc2cc(F)ccc2C3N)cnc1C(=O)N1CCCn2nccc21 (centres unmarked) [Compound 4]
4 | 1 | 220 | COc1ccc2c(c1)C(N)C1(CCN(c3cnc(C(=O)N4CCCn5nccc54)c(N)n3)CC1)C2 (centres unmarked) [Compound 5]
5 | 83 |  | Nc1nc(N2CCC3(CC2)Cc2ccccc2C3N)cnc1C(=O)N1CCOc2cccnc21 (centres unmarked) [Compound 6]
6 | 6 | 95 | Nc1nc(N2CCC3(CC2)Cc2ccccc2C3N)cnc1C(=O)N1CCc2ncccc21 (centres unmarked) [Compound 7]
7 | 5 | 111 | Nc1nc(N2CCC3(CC2)Cc2ccc(F)cc2C3N)cnc1C(=O)N1CCCn2nccc21 (centres unmarked) [Compound 8]
8 | 59 |  | NC1c2ccccc2CC12CCN(c1cnc(C(=O)N3CCCn4nccc43)cn1)CC2 (centres unmarked) [Compound 9]
9 | 4 | 44 | Nc1nc(N2CCC3(CC2)Cc2ccccc2C3N)cnc1C(=O)N1CCc2ncsc2C1 (centres unmarked) [Compound 10]
10 | 24 |  | Nc1nc(N2CCC3(CC2)Cc2ccccc2C3N)cnc1C(=O)N1CCOc2ncccc21 (centres unmarked) [Compound 11]
11 | 49 |  | Nc1nc(N2CCC3(CC2)Cc2ccccc2C3N)cnc1C(=O)N1CCCc2cccnc21 (centres unmarked) [Compound 12]
12 | 11 | 82 | Nc1nc(N2CCC3(CC2)Cc2ccccc2C3N)cnc1C(=O)N1CCCc2ncccc21 (centres unmarked) [Compound 13]
13 | 22 |  | Nc1nc(N2CCC3(CC2)Cc2ccccc2C3N)cnc1C(=O)N1CCCc2c(Cl)cccc21 (centres unmarked) [Compound 14]
14 | 13 | 170 | N#Cc1cccc2c1CCCN2C(=O)c1ncc(N2CCC3(CC2)Cc2ccccc2C3N)nc1N (centres unmarked) [Compound 15]
15 | 5 | 40 | Nc1nc(N2CCC3(CC2)Cc2ccc(F)cc2C3N)cnc1C(=O)N1CCc2ncccc21 (centres unmarked) [Compound 16]
16 | 4 | 17 | Nc1nc(N2CCC3(CC2)Cc2ccc(F)cc2C3N)cnc1C(=O)N1CCc2ncsc2C1 (centres unmarked) [Compound 17]
17 | 5 | 142 | Nc1nc(N2CCC3(CC2)Cc2ccccc2C3N)cnc1C(=O)N1CCc2scnc2C1 (centres unmarked) [Compound 19]
18 | 17 |  | Nc1nc(N2CCC3(CC2)Cc2ccccc2C3N)cnc1C(=O)N1Cc2cccnc2C1 (centres unmarked) [Compound 20]
19 | 3 | 107 | Nc1nc(N2CCC3(CC2)Cc2cc(F)ccc2C3N)cnc1C(=O)N1CCc2ncccc21 (centres unmarked) [Compound 21]

Row | IC50 [1] [nM] | IC50 [2] [nM] | SMILES
20 | 6 | 78 | Nc1nc(N2CCC3(CC2)Cc2ccc(C(F)(F)F)cc2C3N)cnc1C(=O)N1CCCn2nccc21 (centres unmarked) [Compound 22]
21 | 22 |  | NC(=O)c1nc(C(=O)N2CCCn3nccc32)cnc1N1CCC2(CC1)Cc1ccccc1C2N (centres unmarked) [Compound 23]
22 | 15 |  | Nc1nc(N2CCC3(CC2)Cc2sc(Cl)nc2C3N)cnc1C(=O)N1CCCn2nccc21 (centres unmarked) [Compound 25]
23 | 5 | 98 | Cc1nc(C(=O)N2CCCn3nccc32)c(N)nc1N1CCC2(CC1)Cc1ccc(F)cc1C2N (centres unmarked) [Compound 27]
24 | 4 | 44 | Nc1nc(N2CCC3(CC2)Cc2ccccc2C3N)c(Cl)nc1C(=O)N1CCCn2nccc21 (centres unmarked) [Compound 28]
25 | 43 |  | Nc1nc(N2CCC3(CC2)Cc2ccccc2C3N)c(Br)nc1C(=O)N1CCCn2ncc(Br)c21 (centres unmarked) [Compound 29]
26 | 47 |  | Nc1nc(N2CCC3(CC2)Cc2ccccc2C3N)c(Cl)nc1C(=O)N1CCCn2ncc(Cl)c21 (centres unmarked) [Compound 31]
27 | 28 |  | Cc1cc2n(n1)CCCN2C(=O)c1ncc(N2CCC3(CC2)Cc2ccccc2C3N)nc1N (centres unmarked) [Compound 32]
28 | 29 | 285 | Cn1cc(-c2ccc3c(n2)CCCN3C(=O)c2ncc(N3CCC4(CC3)Cc3ccccc3C4N)nc2N)cn1 (centres unmarked) [Compound 33]
29 | 6 | 56 | N#Cc1ccc2c(c1)C(N)C1(CCN(c3cnc(C(=O)N4CCCn5nccc54)c(N)n3)CC1)C2 (centres unmarked) [Compound 34]
30 | 18 |  | CC1(C)CN(C(=O)c2ncc(N3CCC4(CC3)Cc3ccccc3C4N)nc2N)c2cccnc21 (centres unmarked) [Compound 36]
31 | 5 | 172 | Nc1nc(N2CCC3(CC2)Cc2ccccc2C3N)cnc1C(=O)N1CCn2nccc2C1 (centres unmarked) [Compound 37]
32 | 36 |  | Nc1nc(N2CCC3(CC2)Cc2ncccc2C3N)cnc1C(=O)N1CCCn2nccc21 (centres unmarked) [Compound 39]
33 | 59 | 59 | Cn1c(N2CCC3(CC2)Cc2ccccc2C3N)nc(N)c(C(=O)N2CCCn3nccc32)c1=O (centres unmarked) [Compound 40]
34 | 60 |  | Cc1nc(N2CCC3(CC2)Cc2ccccc2C3N)c(CO)nc1C(=O)N1CCCn2nccc21 (centres unmarked) [Compound 43]
35 | 25 |  | Cc1nc(N2CCC3(CC2)Cc2ccccc2C3N)c(C(N)=O)nc1C(=O)N1CCCn2nccc21 (centres unmarked) [Compound 44]
36 | 7 | 176 | Nc1nc(N2CCC3(CC2)Cc2ccccc2C3N)nnc1C(=O)N1CCCn2nccc21 (centres unmarked) [Compound 45]
37 | 29 | 166 | NC1c2ccccc2CC12CCN(c1ncc(C(=O)N3CCc4ncsc4C3)c3nccn13)CC2 (centres unmarked) [Compound 46]
38 | 4 |  | Nc1nc(N2CCC3(CC2)Cc2cc(Cl)ccc2C3N)cnc1C(=O)N1CCCn2nccc21 (centres unmarked) [Compound 48]

Row | IC50 [1] [nM] | IC50 [2] [nM] | SMILES
39 | 8 | 241 | Nc1nc(N2CCC3(CC2)Cc2ccccc2C3N)c(F)nc1C(=O)N1CCCn2nccc21 (centres unmarked) [Compound 49]
40 | 14 | 241 | Cn1cnc2c1CCCN2C(=O)c1ncc(N2CCC3(CC2)Cc2ccccc2C3N)nc1N (centres unmarked) [Compound 50]
41 | 35 |  | Nc1nc(N2CCC3(CC2)Cc2ccccc2C3N)cnc1C(=O)N1CCc2ncncc21 (centres unmarked) [Compound 51]
42 | 50 |  | Nc1nc(N2CCC3(CC2)Cc2cc(C(F)(F)F)ccc2C3N)cnc1C(=O)N1CCCn2nccc21 (centres unmarked) [Compound 55]
43 | 21 |  | CC(C)(O)c1ccc2c(c1)C(N)C1(CCN(c3cnc(C(=O)N4CCCn5nccc54)c(N)n3)CC1)C2 (centres unmarked) [Compound 56]
44 | 6 |  | CC1CN(C(=O)c2ncc(N3CCC4(CC3)Cc3ccccc3C4N)nc2N)c2cccnc21 (centres unmarked) [Compound 57]
45 |  | 49 | CC1(C)Cc2nc(N)sc2CN1C(=O)c1ncc(N2CCC3(CC2)Cc2ccccc2C3N)nc1N (centres unmarked) [Compound 69]
46 |  | 16 | [2H]C1([2H])CN(C(=O)c2ncc(N3CCC4(CC3)Cc3ccc(C)cc3C4N)nc2N)Cc2sc(N)nc21 (centres unmarked) [Compound 71]
47 |  | 12 | Cc1ccc2c(c1)C(N)C1(CCN(c3cnc(C(=O)N4Cc5sc(N)nc5C(F)(F)C4)c(N)n3)CC1)C2 (centres unmarked) [Compound 72]
48 |  | 19 | COc1ccc2c(c1)C(N)C1(CCN(c3cnc(C(=O)N4Cc5sc(N)nc5C(F)(F)C4)c(N)n3)CC1)C2 (centres unmarked) [Compound 73]
49 |  | 6 | Nc1nc2c(s1)CN(C(=O)c1cnc(N3CCC4(CC3)Cc3ccccc3C4N)c(CO)n1)CC2(F)F (centres unmarked) [Compound 74]
50 | 24 |  | Nc1ccc2c(n1)CCN2C(=O)c1ncc(N2CCC3(CC2)Cc2cccc(F)c2C3N)nc1N (centres unmarked) [Compound 90]
51 | 10 |  | Nc1ccc2c(n1)CCN2C(=O)c1ncc(N2CCC3(CC2)Cc2ccncc2C3N)nc1N (centres unmarked) [Compound 97]
52 | 26 |  | Nc1ccc2c(n1)CCCN2C(=O)c1ncc(N2CCC3(CC2)Cc2ccccc2C3N)nc1N (centres unmarked) [Compound 98]
53 | 15 |  | Cc1nc(N2CCC3(CC2)Cc2ccccc2C3N)c(CO)nc1C(=O)N1CCc2nc(N)ccc21 (centres unmarked) [Compound 111]
54 | 9 |  | CC1(C)Cc2nc(N)sc2CN1C(=O)c1ncc(N2CCC3(CC2)Cc2ccccc2C3N)nc1N (centres unmarked) [Compound 121]
55 | 5 |  | [2H]C1([2H])CN(C(=O)c2ncc(N3CCC4(CC3)Cc3ccc(C)cc3C4N)nc2N)Cc2sc(N)nc21 (centres unmarked) [Compound 123]
56 | 9 |  | Cc1ccc2c(c1)C(N)C1(CCN(c3cnc(C(=O)N4Cc5sc(N)nc5C(F)(F)C4)c(N)n3)CC1)C2 (centres unmarked) [Compound 124]
